Data published in patent EP4389749A1, “SUBSTITUTED 3,7-DIHYDRO-1H-PURINE-2,6-DIONES AND USE THEREOF” (invIOs GmbH, priority 2022, dated 2024).
pEC50: −log10 of the molar value.

Tests used:
CD4+ T-cells = assay: Immunostimulation assay with anti-CD3/28 stimulated T-cells, CD69 expression by flow cytometry; format: cell-based, human; settings: T-cell; purified human CD4+ and CD8+ T-cells, 1 µg/ml anti-CD3, 1 µg/ml anti-CD28, 16 hours, surface FACS; read-out: EC50 CD4+
Procedure: (§1) Selection of potent compounds based on structure activity relation (SAR) using human, anti-CD3/28 stimulated T-cells. Enhanced activation of stimulated T-cells is measured by CD69 expression by flowcytometry.
(§2) White blood cell enriched buffy coats were ordered from the Austrian red cross, diluted with PBS to a total volume of 480 ml, 30 ml transferred to 50ml falcons and 11 ml lymphoprep added. Cell suspensions were centrifuged for 20 min at 2200 rpm and the PBMC containing layer transferred, three times washed with PBS and counted.
(§3) 10^7 PBMCs were magnetically labeled with CD4 and CD8 microbeads according to manufacturer's instructions and separated using autoMACS device. For dose response experiments with purified CD4+CD8+ T-cells 80000 cells were seeded per 96-well flat bottom cell culture dish.
(§4) 10 mM compounds of the invention stocks were further diluted using DMSO and equal amounts transferred to T-cell containing 96-wells. Final concentrations tested were: 30 µM, 10 µM, 3 µM, 1 µM, 0.3 µM, 0.1 µM, 0.03 µM, 0.01 µM, 0.003 µM and 0.001 µM.
(§5) For the stimulation assays 80.000 purified CD4+ and CD8+ T-cells were seeded per 96-well and incubated with 1 µg/ml anti-CD3, 1 µg/ml anti-CD28 and compounds of the invention ranging from 0.001 µM to 30 µM. DMSO only wells served as control to determine minimal T-cell activation upon stimulation and CD3/28 coupled Dynabeads were used to determine the maximal activation of T-cells. Cells were cultured for 16 hours in a humidified incubator at 37 °C and 5 % CO2.
(§6) T-cells were stained for surface antigens (anti-CD4 and anti-CD8) and cell activation markers (anti-CD25 and anti-CD69). Additionally, a fixable viability dye was used to stain viable cells. Staining was performed for 15 minutes and cells analyzed using a Fortessa flow cytometer and FlowJo Software. EC50s were calculated using GraphPad Prism® and a variable slope model (agonist vs. response - variable slope).

CD8+ T-cells = assay: as above; format: cell-based, human; settings: T-cell; purified human CD4+ and CD8+ T-cells, 1 µg/ml anti-CD3, 1 µg/ml anti-CD28, 16 hours, surface FACS; read-out: EC50 CD8+
Procedure: as §1, §2, §3, §4, §5, §6

Row | SMILES | pEC50 (CD4+ T-cells) | pEC50 (CD8+ T-cells)
1 | COc1cc(-c2nc3c(c(=O)[nH]c(=O)n3CC(C)O)n2C)ccc1Oc1ccc(OC(F)(F)F)cc1 (centres unmarked) [Compound 196, 3-(2-hydroxypropyl)-8-(3-methoxy-4-(4-(trifluoromethoxy)phenoxy)phenyl)-7-methyl-3,7-dihydro-1H-purine-2,6-dione] | 5.30 to 6.00 | 5.30 to 6.00
2 | CC(O)Cn1c(=O)[nH]c(=O)c2c1nc(-c1ccc(Oc3ccc(OC(F)(F)F)cc3)c(Cl)c1)n2C (centres unmarked) [Compound 179, 8-(3-chloro-4-(4-(trifluoromethoxy)phenoxy)phenyl)-3-(2-hydroxypropyl)-7-methyl-3,7-dihydro-1H-purine-2,6-dione] | < 5.30 | 6.00 to 6.30
3 | CC(O)Cn1c(=O)[nH]c(=O)c2c1nc(-c1ccc(Oc3ccc(S(C)(=O)=O)cc3)cc1)n2C (centres unmarked) [Compound 176, 3-(2-hydroxypropyl)-7-methyl-8-(4-(4-(methylsulfonyl)phenoxy)phenyl)-3,7-dihydro-1H-purine-2,6-dione] | 5.30 to 6.00 | 6.00 to 6.30
4 | CC(O)Cn1c(=O)[nH]c(=O)c2c1nc(-c1ccc(Oc3cccc(OC(F)(F)F)c3)cc1)n2C (centres unmarked) [Compound 191, 3-(2-hydroxypropyl)-7-methyl-8-(4-(3-(trifluoromethoxy)phenoxy)phenyl)-3,7-dihydro-1H-purine-2,6-dione] | 6.00 to 6.30 | 6.00 to 6.30
5 | CC(O)Cn1c(=O)[nH]c(=O)c2c1nc(-c1ccc(Oc3ccccc3OC(F)(F)F)cc1)n2C (centres unmarked) [Compound 190, 3-(2-hydroxypropyl)-7-methyl-8-(4-(2-(trifluoromethoxy)phenoxy)phenyl)-3,7-dihydro-1H-purine-2,6-dione] | < 5.30 | < 5.30
6 | COc1cc(-c2nc3c(c(=O)[nH]c(=O)n3CC(C)O)n2C)ccc1OCc1ccc(F)cc1 (centres unmarked) [Compound 87, 8-(4-((4-fluorobenzyl)oxy)-3-methoxyphenyl)-3-(2-hydroxypropyl)-7-methyl-3,7-dihydro-1H-purine-2,6-dione] | 6.00 to 6.30 | 6.30 to 7.00
7 | CC(O)Cn1c(=O)[nH]c(=O)c2c1nc(-c1ccc(Oc3ccc(OC(F)(F)F)cc3F)cc1)n2C (centres unmarked) [Compound 193, 8-(4-(2-fluoro-4-(trifluoromethoxy)phenoxy)phenyl)-3-(2-hydroxypropyl)-7-methyl-3,7-dihydro-1H-purine-2,6-dione] | 5.30 to 6.00 | 5.30 to 6.00
8 | CCC(O)Cn1c(=O)[nH]c(=O)c2c1nc(-c1ccc(OCc3ccccc3)c(OC)c1)n2C (centres unmarked) [Compound 59, 8-(4-(benzyloxy)-3-methoxyphenyl)-3-(2-hydroxybutyl)-7-methyl-3,7-dihydro-1H-purine-2,6-dione] | 5.30 to 6.00 | 5.30 to 6.00
9 | COc1cc(-c2nc3c(c(=O)[nH]c(=O)n3C[C@@H](C)O)n2C)ccc1OCc1ccccc1 [Compound 60, (R)-8-(4-(benzyloxy)-3-methoxyphenyl)-3-(2-hydroxypropyl)-7-methyl-3,7-dihydro-1H-purine-2,6-dione] | 5.30 to 6.00 | 5.30 to 6.00
10 | COc1cc(-c2nc3c(c(=O)[nH]c(=O)n3CC(O)CF)n2C)ccc1OCc1ccccc1 (centres unmarked) [Compound 58, 8-(4-(benzyloxy)-3-methoxyphenyl)-3-(3-fluoro-2-hydroxypropyl)-7-methyl-3,7-dihydro-1H-purine-2,6-dione] | 6.00 to 6.30 | 6.30 to 7.00
11 | COc1cc(-c2nc3c(c(=O)[nH]c(=O)n3CC(C)(C)O)n2C)ccc1OCc1ccccc1 [Compound 52, 8-(4-(benzyloxy)-3-methoxyphenyl)-3-(2-hydroxy-2-methylpropyl)-7-methyl-3,7-dihydro-1H-purine-2,6-dione] | 5.30 to 6.00 | < 5.30
12 | CC(CO)Cn1c(=O)[nH]c(=O)c2c1nc(-c1ccc(Oc3ccc(Cl)cc3)c(Cl)c1)n2C (centres unmarked) [Compound 150, 8-(3-chloro-4-(4-chlorophenoxy)phenyl)-3-(3-hydroxy-2-methylpropyl)-7-methyl-3,7-dihydro-1H-purine-2,6-dione] | 6.00 to 6.30 | 6.30 to 7.00
13 | COc1cc(-c2nc3c(c(=O)[nH]c(=O)n3CC(C)O)n2C)ccc1OCc1cccc2ncccc12 (centres unmarked) [Compound 113, 3-(2-hydroxypropyl)-8-(3-methoxy-4-(quinolin-5-ylmethoxy)phenyl)-7-methyl-3,7-dihydro-1H-purine-2,6-dione] | 6.00 to 6.30 | 5.30 to 6.00

More lines, now with the values ahead:

Row | pEC50 (CD4+ T-cells) | pEC50 (CD8+ T-cells) | SMILES
14 | 6.30 to 7.00 | 6.30 to 7.00 | Cc1ccc(COc2ccc(-c3nc4c(c(=O)[nH]c(=O)n4CC(C)CO)n3C)cc2F)cc1 (centres unmarked) [Compound 97, 8-(3-fluoro-4-((4-methylbenzyl)oxy)phenyl)-3-(3-hydroxy-2-methylpropyl)-7-methyl-3,7-dihydro-1H-purine-2,6-dione]
15 | > 7.00 | 6.30 to 7.00 | Cn1c(-c2ccc(OCc3ccccc3)c(OC(F)(F)F)c2)nc2c1c(=O)[nH]c(=O)n2CC(CO)C(F)F (centres unmarked) [Compound 198, 8-(4-(benzyloxy)-3-(trifluoromethoxy)phenyl)-3-(3,3-difluoro-2-(hydroxymethyl)propyl)-7-methyl-3,7-dihydro-1H-purine-2,6-dione]
16 | 6.30 to 7.00 | 6.30 to 7.00 | COc1cc(-c2nc3c(c(=O)[nH]c(=O)n3CC(O)C(F)(F)F)n2C)ccc1OCc1ccc(C(F)F)cc1 (centres unmarked) [Compound 75, 8-(4-((4-(difluoromethyl)benzyl)oxy)-3-methoxyphenyl)-7-methyl-3-(3,3,3-trifluoro-2-hydroxypropyl)-3,7-dihydro-1H-purine-2,6-dione]
17 | 6.30 to 7.00 | > 7.00 | CC(O)Cn1c(=O)[nH]c(=O)c2c1nc(-c1ccc(Oc3ccc(Cl)cc3)c(OC(F)F)c1)n2C (centres unmarked) [Compound 81, 8-(4-(4-chlorophenoxy)-3-(difluoromethoxy)phenyl)-3-(2-hydroxypropyl)-7-methyl-3,7-dihydro-1H-purine-2,6-dione]
18 | > 7.00 | 6.30 to 7.00 | Cc1ccc(COc2ccc(-c3nc4c(c(=O)[nH]c(=O)n4CC(CO)C(F)F)n3C)cc2F)cc1 (centres unmarked) [Compound 67, 3-(3,3-difluoro-2-(hydroxymethyl)propyl)-8-(3-fluoro-4-((4-methylbenzyl)oxy)phenyl)-7-methyl-3,7-dihydro-1H-purine-2,6-dione]
19 | 6.30 to 7.00 | 6.30 to 7.00 | CC(CO)Cn1c(=O)[nH]c(=O)c2c1nc(-c1ccc(Oc3ccc(OC(F)(F)F)cc3)cc1)n2C (centres unmarked) [Compound 100, 3-(3-hydroxy-2-methylpropyl)-7-methyl-8-(4-(4-(trifluoromethoxy)phenoxy)phenyl)-3,7-dihydro-1H-purine-2,6-dione]
20 | 6.30 to 7.00 | 6.30 to 7.00 | CC(O)Cn1c(=O)[nH]c(=O)c2c1nc(-c1ccc(OCc3ccc(F)cc3)c(Cl)c1)n2C (centres unmarked) [Compound 91, 8-(3-chloro-4-((4-fluorobenzyl)oxy)phenyl)-3-(2-hydroxypropyl)-7-methyl-3,7-dihydro-1H-purine-2,6-dione]
21 | 6.30 to 7.00 | 6.30 to 7.00 | Cn1c(-c2ccc(Oc3ccc(OC(F)(F)F)cc3F)c(Cl)c2)nc2c1c(=O)[nH]c(=O)n2CC(O)C(F)(F)F (centres unmarked) [Compound 163, 8-(3-chloro-4-(2-fluoro-4-(trifluoromethoxy)phenoxy)phenyl)-7-methyl-3-(3,3,3-trifluoro-2-hydroxypropyl)-3,7-dihydro-1H-purine-2,6-dione]
22 | 6.30 to 7.00 | 6.30 to 7.00 | CC(O)Cn1c(=O)[nH]c(=O)c2c1nc(-c1ccc(OCCCc3ccccc3)c(F)c1)n2C (centres unmarked) [Compound 201, 8-(3-fluoro-4-(3-phenylpropoxy)phenyl)-3-(2-hydroxypropyl)-7-methyl-3,7-dihydro-1H-purine-2,6-dione]
